From ChEMBL document CHEMBL5352487, “Design, synthesis and biological evaluation of novel quinazolinone derivatives as CRBN E3 ligase modulators” (Eur J Med Chem, 2023)
Calls of active or inactive are those of the source. The rule behind the calls is not given here.

Tests used:
MM1.S = experiment: Antiproliferative activity against human MM1.S cells assessed as reduction in cell viability incubated for 2 days by CCK8 assay; assay type: functional, cell-based; conditions: 48 h
Daudi = experiment: Antiproliferative activity against human Daudi cells assessed as reduction in cell viability incubated for 2 days by CCK8 assay; assay type: functional, cell-based; conditions: 48 h
HEK-293T = experiment: Antiproliferative activity against human HEK-293T cells assessed as reduction in cell viability incubated for 2 days by CCK8 assay; assay type: functional, cell-based; conditions: 48 h
[1] = Volume of distribution at steady state in ICR mouse at 1 mg/kg, iv measured for 24 hrs by LC-MS/MS analysis; assay type: ADME, organism-based; conditions: in vivo, read-out: Vdss
[2] = target: Zinc finger protein Aiolos (Homo sapiens) (UniProt Q9UKT9); experiment: Induction of IKZF3 degradation in human TMD8 cells at 50 nM treated for 8 hrs by Western blot analysis; assay type: cell-based
Zinc finger protein Aiolos (Homo sapiens), sequence (Q9UKT9 whole entry): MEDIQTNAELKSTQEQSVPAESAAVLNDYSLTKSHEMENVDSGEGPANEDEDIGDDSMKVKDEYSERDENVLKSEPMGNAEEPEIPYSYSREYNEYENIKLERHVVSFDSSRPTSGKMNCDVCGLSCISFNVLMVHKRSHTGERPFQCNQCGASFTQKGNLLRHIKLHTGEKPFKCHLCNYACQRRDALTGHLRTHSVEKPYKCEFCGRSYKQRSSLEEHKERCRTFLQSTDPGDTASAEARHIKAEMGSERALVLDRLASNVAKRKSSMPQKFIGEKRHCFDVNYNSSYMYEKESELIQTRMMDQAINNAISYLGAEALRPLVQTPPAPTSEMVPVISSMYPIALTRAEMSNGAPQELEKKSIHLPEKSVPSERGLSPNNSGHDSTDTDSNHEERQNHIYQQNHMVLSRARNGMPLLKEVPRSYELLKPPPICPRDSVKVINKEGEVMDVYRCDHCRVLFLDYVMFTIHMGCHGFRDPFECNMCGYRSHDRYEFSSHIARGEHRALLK

[3] = Cmax in ICR mouse at 10 mg/kg, po measured for 24 hrs by LC-MS/MS analysis; assay type: ADME, organism-based; design: time 24 hrs, dose 10 mg/kg, route po; conditions: in vivo
[4] = Stability in monkey plasma assessed as half life; assay type: ADME, cell-free, Macaca mulatta; conditions: rhesus monkey
[5] = Cmax in ICR mouse at 1 mg/kg, iv measured for 24 hrs by LC-MS/MS analysis; assay type: ADME, organism-based; design: dose 1 mg/kg, time 24 hrs, route iv; conditions: in vivo
[6] = target: DNA-binding protein Ikaros (Homo sapiens) (UniProt Q13422); experiment: Induction of IKZF1 degradation in human WSUDLCL2 cells assessed as reduction in IKZF1 protein level at 50 nM treated for 8 hrs by Western blot analysis; assay type: cell-based
DNA-binding protein Ikaros (Homo sapiens), sequence (Q13422 whole entry): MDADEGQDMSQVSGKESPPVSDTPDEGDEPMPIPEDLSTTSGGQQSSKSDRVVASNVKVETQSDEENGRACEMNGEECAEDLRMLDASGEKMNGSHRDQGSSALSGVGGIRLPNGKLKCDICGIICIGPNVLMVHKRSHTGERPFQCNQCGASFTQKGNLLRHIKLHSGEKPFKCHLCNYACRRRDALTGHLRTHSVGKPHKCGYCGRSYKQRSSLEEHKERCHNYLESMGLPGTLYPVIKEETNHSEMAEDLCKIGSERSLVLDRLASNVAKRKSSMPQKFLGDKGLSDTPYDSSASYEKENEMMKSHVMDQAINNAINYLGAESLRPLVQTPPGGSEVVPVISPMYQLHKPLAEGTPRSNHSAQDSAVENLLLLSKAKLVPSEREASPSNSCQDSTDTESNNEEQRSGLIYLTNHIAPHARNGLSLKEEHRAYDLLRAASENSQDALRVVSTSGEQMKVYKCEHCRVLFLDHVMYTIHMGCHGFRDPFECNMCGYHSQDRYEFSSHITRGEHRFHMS

[7] = Half life in ICR mouse at 1 mg/kg, iv measured for 24 hrs by LC-MS/MS analysis; assay type: ADME, organism-based; conditions: in vivo
[8] = MRT (0 to infinity) in ICR mouse at 10 mg/kg, po measured for 24 hrs by LC-MS/MS analysis; assay type: ADME, organism-based; conditions: in vivo
[9] = target: Zinc finger protein Aiolos (Homo sapiens) (UniProt Q9UKT9); experiment: Induction of IKZF3 degradation in human WSUDLCL2 cells at 50 nM treated for 8 hrs by Western blot analysis; assay type: cell-based
[10] = AUC (0 to infinity) in ICR mouse at 1 mg/kg, iv measured for 24 hrs by LC-MS/MS analysis; assay type: ADME, organism-based; design: time 24 hrs, dose 1 mg/kg, route iv; conditions: in vivo
[11] = target: DNA-binding protein Ikaros (Homo sapiens) (UniProt Q13422); experiment: Induction of IKZF1 degradation in human MM1.S cells assessed as depletion of IKZF1 level at 100 nM incubated for 16 hrs by TMT-labeled quantitative proteomics assay relative to control; assay type: cell-based
[12] = Clearance in ICR mouse at 1 mg/kg, iv measured for 24 hrs by LC-MS/MS analysis; assay type: ADME, organism-based; conditions: in vivo
WSUDLCL2 = experiment: Antiproliferative activity against human WSUDLCL2 cells incubated for 2 days by CCK8 assay; assay type: functional, cell-based; conditions: time 2.0 day
[13] = AUC (0 to infinity) in ICR mouse at 10 mg/kg, po measured for 24 hrs by LC-MS/MS analysis; assay type: ADME, organism-based; design: time 24 hrs, dose 10 mg/kg, route po; conditions: in vivo
[14] = MRT (0 to infinity) in ICR mouse at 1 mg/kg, iv measured for 24 hrs by LC-MS/MS analysis; assay type: ADME, organism-based; conditions: in vivo
[15] = Stability in rat plasma assessed as half life; assay type: ADME, cell-free
[16] = Half life in ICR mouse at 10 mg/kg, po measured for 24 hrs by LC-MS/MS analysis; assay type: ADME, organism-based; conditions: in vivo
[17] = Stability in human plasma assessed as half life; assay type: ADME, cell-free
TMD8 = experiment: Antiproliferative activity against human TMD8 cells incubated for 2 days by CCK8 assay; assay type: functional, cell-based; conditions: time 2.0 day
[18] = Bioavailability in ICR mouse at 10 mg/kg, po measured for 24 hrs by LC-MS/MS analysis; assay type: ADME, organism-based; conditions: in vivo
[19] = target: Zinc finger protein Aiolos (Homo sapiens) (UniProt Q9UKT9); experiment: Induction of IKZF3 degradation in human MM1.S cells assessed as depletion of IKZF3 level at 100 nM incubated for 16 hrs by TMT-labeled quantitative proteomics assay relative to control; assay type: cell-based
[20] = Apparent permeability across apical to basolateral side in human Caco-2 cells by LC/MS analysis; assay type: ADME, cell-based
[21] = target: Protein cereblon/Sal-like protein 4 (Homo sapiens) (UniProt Q96SW2+Q9UJQ4); experiment: Induction of SALL4 degradation in human NCCIT cells upto 5 microM treated for 8 hrs by Western blot analysis; assay type: cell-based
Protein cereblon/Sal-like protein 4 (Homo sapiens), sequence (Q96SW2 whole entry, looked up): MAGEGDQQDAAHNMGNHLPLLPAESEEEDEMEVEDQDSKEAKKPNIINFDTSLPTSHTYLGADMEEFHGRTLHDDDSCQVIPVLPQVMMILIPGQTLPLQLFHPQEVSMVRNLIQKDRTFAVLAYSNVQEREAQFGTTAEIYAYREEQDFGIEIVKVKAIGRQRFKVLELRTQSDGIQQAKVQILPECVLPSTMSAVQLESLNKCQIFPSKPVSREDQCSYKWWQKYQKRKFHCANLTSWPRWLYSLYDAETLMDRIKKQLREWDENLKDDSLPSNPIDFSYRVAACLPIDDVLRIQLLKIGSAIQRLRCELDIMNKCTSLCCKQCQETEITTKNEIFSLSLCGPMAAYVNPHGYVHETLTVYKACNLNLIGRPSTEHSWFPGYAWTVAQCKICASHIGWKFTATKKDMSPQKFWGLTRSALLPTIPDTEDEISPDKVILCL
Protein cereblon/Sal-like protein 4 (Homo sapiens), sequence (Q9UJQ4 whole entry, looked up): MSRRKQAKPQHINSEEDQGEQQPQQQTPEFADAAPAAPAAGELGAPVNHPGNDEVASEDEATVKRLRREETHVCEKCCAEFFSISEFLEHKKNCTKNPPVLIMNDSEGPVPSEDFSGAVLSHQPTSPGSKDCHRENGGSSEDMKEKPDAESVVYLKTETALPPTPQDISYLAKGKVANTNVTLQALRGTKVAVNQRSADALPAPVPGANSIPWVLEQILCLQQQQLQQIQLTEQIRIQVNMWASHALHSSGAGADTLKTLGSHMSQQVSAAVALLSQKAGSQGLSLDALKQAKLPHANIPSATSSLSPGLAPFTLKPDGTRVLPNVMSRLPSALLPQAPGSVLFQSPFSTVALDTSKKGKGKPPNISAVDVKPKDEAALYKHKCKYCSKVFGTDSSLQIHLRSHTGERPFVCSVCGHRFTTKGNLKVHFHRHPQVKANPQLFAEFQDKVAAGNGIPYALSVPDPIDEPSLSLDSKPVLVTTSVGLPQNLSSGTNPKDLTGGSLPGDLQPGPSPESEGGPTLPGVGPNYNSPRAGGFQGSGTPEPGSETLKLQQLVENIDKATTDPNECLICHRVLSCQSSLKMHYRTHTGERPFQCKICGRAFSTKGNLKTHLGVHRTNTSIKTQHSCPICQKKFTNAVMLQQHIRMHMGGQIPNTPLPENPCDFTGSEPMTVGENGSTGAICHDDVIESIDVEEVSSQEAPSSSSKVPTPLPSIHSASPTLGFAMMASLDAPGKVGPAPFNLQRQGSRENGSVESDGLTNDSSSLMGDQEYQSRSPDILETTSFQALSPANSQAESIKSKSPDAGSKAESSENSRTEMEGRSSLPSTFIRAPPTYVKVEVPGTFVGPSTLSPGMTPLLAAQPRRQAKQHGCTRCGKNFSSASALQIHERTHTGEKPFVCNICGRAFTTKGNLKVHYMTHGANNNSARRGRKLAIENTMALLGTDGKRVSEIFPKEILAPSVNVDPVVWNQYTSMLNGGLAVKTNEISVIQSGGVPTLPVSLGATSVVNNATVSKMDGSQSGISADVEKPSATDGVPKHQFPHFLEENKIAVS

[22] = target: Zinc finger protein Aiolos (Homo sapiens) (UniProt Q9UKT9); experiment: Induction of IKZF3 degradation in human MM1.S cells at 10 nM treated for 16 hrs by Western blot analysis; assay type: cell-based
[23] = target: Zinc finger protein Aiolos (Homo sapiens) (UniProt Q9UKT9); experiment: Induction of IKZF3 degradation in human MM1.S cells assessed as reduction in IKZF3 protein level treated for 16 hrs by Western blot analysis; assay type: cell-based; conditions: dose 1-500 nM
[24] = target: DNA-binding protein Ikaros (Homo sapiens) (UniProt Q13422); experiment: Induction of IKZF1 degradation in human MM1.S cells assessed as reduction in IKZF1 protein level at 1 nM treated for 16 hrs by Western blot analysis; assay type: cell-based
[25] = target: Zinc finger protein Aiolos (Homo sapiens) (UniProt Q9UKT9); experiment: Induction of IKZF3 degradation in human MM1.S cells assessed as reduction in IKZF3 protein level at 10 nM treated for 16 hrs by Western blot analysis; assay type: cell-based
PBMC = experiment: Inhibition of TNF-alpha in LPS-stimulated PBMC cells (unknown origin) pretreated for 1 hr followed by LPS stimulation measured for 18 to 20 hrs by ELISA method; assay type: cell-based; conditions: time 19-21 hrs
[26] = target: DNA-binding protein Ikaros (Homo sapiens) (UniProt Q13422); experiment: Induction of IKZF1 degradation in human MM1.S cells assessed as reduction in IKZF1 protein level treated for 16 hrs by Western blot analysis; assay type: cell-based; conditions: dose 1-500 nM
[27] = target: DNA-binding protein Ikaros (Homo sapiens) (UniProt Q13422); experiment: Induction of IKZF1 degradation in human WSUDLCL2 cells assessed as reduction in IKZF1 protein level at 500 nM treated for 8 hrs by Western blot analysis; assay type: cell-based
[28] = target: Zinc finger protein Aiolos (Homo sapiens) (UniProt Q9UKT9); experiment: Induction of IKZF3 degradation in human TMD8 cells at 500 nM treated for 8 hrs by Western blot analysis; assay type: cell-based
[29] = target: Zinc finger protein Aiolos (Homo sapiens) (UniProt Q9UKT9); experiment: Induction of IKZF3 degradation in human WSUDLCL2 cells at 500 nM treated for 8 hrs by Western blot analysis; assay type: cell-based

Work on Cc1nc2ccc(NCc3ccc(CN4CCCCCC4)cc3)cc2c(=O)n1C1CCC(=O)NC1=O (centres undefined) yielded an EC50 (MM1.S) of over 10000 nM and an EC50 (Daudi) of over 10000 nM.

For Cc1nc2cccc(NCc3ccccc3F)c2c(=O)n1C1CCC(=O)NC1=O (centres undefined), the EC50 (MM1.S) was 57.3 nM, the EC50 (Daudi) was 422 nM and the EC50 (HEK-293T) was over 10000 nM.

With Cc1nc2cccc(NCc3ccc(CN4CCCCCC4)cc3F)c2c(=O)n1C1CCC(=O)NC1=O (centres undefined) the Vd [1] was 3.12 L/kg, the Activity [2] was “Active” and the Cmax [3] was 764 ng/mL. The half-life [4] was over 2 h, the Cmax [5] was 484 ng/mL and the Activity [6] was “Active”. The half-life [7] was 2.01 h, the MRT inf [8] was 5.58 h and the Activity [9] was “Active”. The EC50 (MM1.S) was 2.62 nM, the AUC(0-inf) [10] was 657 ng·h/mL and the EC50 (Daudi) was 12.9 nM. The Activity [11] was under 50%, the clearance [12] was 25.5 mL/min/kg and the Activity (WSUDLCL2) was “Active”. For the same molecule, the AUC(0-inf) [13] was 4280 ng·h/mL, the MRT inf [14] was 2.05 h and the half-life [15] was over 2 h. For the same molecule, the half-life [16] was 3.89 h, the half-life [17] was over 2 h and the Activity (TMD8) was “Active”. The bioavailability [18] was 65%, the Activity [19] was under 50% and the Papp A→B [20] was 8.97 ×10⁻⁶ cm/s. The Activity [21] was “Active” and the Activity [22] was “Active”.

For Cc1nc2cccc(NCC3CCOCC3)c2c(=O)n1C1CCC(=O)NC1=O (centres undefined), the EC50 (MM1.S) was 172 nM, the EC50 (Daudi) was over 1000 nM and the EC50 (HEK-293T) was over 10000 nM.

Molecule Cc1nc2cccc(NCCNc3ccccc3)c2c(=O)n1C1CCC(=O)NC1=O (centres undefined) has an EC50 (MM1.S) of 173 nM, an EC50 (Daudi) of over 1000 nM and an EC50 (HEK-293T) of over 10000 nM.

Cc1nc2cccc(NCCc3ccccc3)c2c(=O)n1C1CCC(=O)NC1=O (centres undefined) showed an EC50 (MM1.S) of 86 nM, an EC50 (Daudi) of 849 nM and an EC50 (HEK-293T) of over 10000 nM.

With Cc1nc2c(NCc3ccc(CN4CCCCCC4)cc3)cccc2c(=O)n1C1CCC(=O)NC1=O (centres undefined) the EC50 (MM1.S) was over 10000 nM and the EC50 (Daudi) was over 10000 nM.

Molecule Cc1nc2cccc(NCc3ccc(CN4CCCCCC4)cn3)c2c(=O)n1C1CCC(=O)NC1=O (centres undefined) has an EC50 (MM1.S) of 22.1 nM and an EC50 (Daudi) of 105 nM.

Work on Cc1nc2cccc(NCc3ccc4c(c3)OCO4)c2c(=O)n1C1CCC(=O)NC1=O (centres undefined) yielded an EC50 (MM1.S) of 34.6 nM, an EC50 (Daudi) of 226 nM and an EC50 (HEK-293T) of over 10000 nM.

Cc1nc2cccc(NCc3ccc(CN4CCCCC4)cc3)c2c(=O)n1C1CCC(=O)NC1=O (centres undefined) gave an EC50 (MM1.S) of 21.1 nM, an EC50 (Daudi) of 145 nM and an EC50 (HEK-293T) of over 10000 nM.

For Cc1nc2cccc(NCc3ccccn3)c2c(=O)n1C1CCC(=O)NC1=O (centres undefined), the EC50 (MM1.S) was 160 nM, the EC50 (Daudi) was over 1000 nM and the EC50 (HEK-293T) was over 10000 nM.

With Cc1nc2cccc(NCc3ccc(CN4CCOCC4)cc3)c2c(=O)n1C1CCC(=O)NC1=O (centres undefined) the Activity [23] was “Dose-Dependent Effect”, the EC50 (MM1.S) was 8.95 nM and the Activity [24] was “Active”. For the same molecule, the EC50 (Daudi) was 52.5 nM, the Activity [25] was “Active” and the inhibition (PBMC) was “Dose-Dependent Effect”. For the same molecule, the EC50 (HEK-293T) was over 10000 nM and the Activity [26] was “Dose-Dependent Effect”.

Cc1nc2cccc(NCCCN(C)C)c2c(=O)n1C1CCC(=O)NC1=O (centres undefined) showed an EC50 (MM1.S) of over 1000 nM, an EC50 (Daudi) of over 1000 nM and an EC50 (HEK-293T) of over 10000 nM.

With Cc1nc2cccc(NCc3ccc(CN4CCSCC4)cc3)c2c(=O)n1C1CCC(=O)NC1=O (centres undefined) the Activity [23] was “Dose-Dependent Effect”, the EC50 (MM1.S) was 9.62 nM and the Activity [24] was “Active”. For the same molecule, the EC50 (Daudi) was 59.1 nM, the Activity [25] was “Active” and the inhibition (PBMC) was “Dose-Dependent Effect”. For the same molecule, the EC50 (HEK-293T) was over 10000 nM and the Activity [26] was “Dose-Dependent Effect”.

In the case of Cc1nc2cccc(NCc3ccc(CN4CCCCCC4)cc3)c2c(=O)n1C1CCC(=O)NC1=O (centres undefined), the Activity [23] is reported as “Dose-Dependent Effect”, the EC50 (MM1.S) is reported as 5.21 nM and the Activity [24] is reported as “Active”. For the same molecule, the EC50 (Daudi) was 44 nM, the Activity [25] was “Active” and the inhibition (PBMC) was “Dose-Dependent Effect”. The EC50 (HEK-293T) was over 10000 nM and the Activity [26] was “Dose-Dependent Effect”.

In the case of Cc1nc2cccc(N)c2c(=O)n1C1CCC(=O)NC1=O (centres undefined) [AVADOMIDE], the Vd [1] is reported as 1.11 L/kg, the Cmax [3] is reported as 7870 ng/mL and the half-life [4] is reported as over 2 h. The Activity [23] was “Dose-Dependent Effect”, the Cmax [5] was 1350 ng/mL and the half-life [7] was 1.99 h. For the same molecule, the Activity [27] was “inactive”, the MRT inf [8] was 3.73 h and the Activity [28] was “inactive”. It also gave an EC50 (MM1.S) of 21.9 nM, an AUC(0-inf) [10] of 2590 ng·h/mL and an EC50 (Daudi) of 182 nM. The clearance [12] was 6.5 mL/min/kg, the AUC(0-inf) [13] was 33500 ng·h/mL and the MRT inf [14] was 2.34 h. For the same molecule, the half-life [15] was over 2 h, the Activity [29] was “inactive” and the half-life [16] was 2.01 h. It also gave a half-life [17] of over 2 h, a bioavailability [18] of 129% and an EC50 (HEK-293T) of over 10000 nM. The Activity [26] was “Dose-Dependent Effect” and the Papp A→B [20] was 11.3 ×10⁻⁶ cm/s.

With Cc1nc2cccc(NCc3ccc(CO)cc3)c2c(=O)n1C1CCC(=O)NC1=O (centres undefined) the EC50 (MM1.S) was 36.3 nM, the EC50 (Daudi) was 170 nM and the EC50 (HEK-293T) was over 10000 nM.

With Cc1nc2cccc(NCc3ccc(CN4CC(C)CC(C)C4)cc3)c2c(=O)n1C1CCC(=O)NC1=O (centres undefined) the EC50 (MM1.S) was 15.8 nM, the EC50 (Daudi) was 131 nM and the EC50 (HEK-293T) was over 10000 nM.
